Data on 5 compounds can be found in US9346820B2, “HIV-1 protease inhibitors having gem-di-fluoro bicyclic P2-ligands” (priority 2013, dated 2016).

What is called EC50 is the midpoint of the concentration-response curve. The term Papp denotes the rate of passage across a membrane or cell layer, normalised by area and donor concentration. What is called CC50 is the concentration giving 50% cytotoxicity.

Where two headings read alike, the source gives them in different places.

The subject of one data set is HIV-1NL4-3. The experiment in a line: p24 Gag production inhibition in MT-4 cells, wild-type laboratory strain. In kind it is cell-based. How it is done: (§1) The susceptibility of HIV-1LAI to various drugs was determined as previously described with minor modifications. Briefly, MT-2 cells (10^4/ml) were exposed to 100 50% tissue culture infectious doses (TCID50) of HIV-1LAI in the presence or absence of various concentrations of drugs in 96-well microculture plates and were incubated at 37° C. for 7 days. After 100 μl of the medium was removed from each well, 3-(4,5-dimetylthiazol-2-yl)-2,5-diphenyltetrazolium bromide (MTT) solution (10 μl, 7.5 mg/ml in phosphate-buffered saline) was added to each well in the plate, followed by incubation at 37° C. for 2 h. […] All assays were performed in duplicate or triplicate. […] To determine the sensitivity of primary HIV-1 isolates to drugs, phytohemagglutinin-stimulated peripheral blood mononuclear cells (PHA-PBMC) (10^6/ml) were exposed to 50 TCID50 of each primary HIV-1 isolate and cultured in the presence or absence of various concentrations of drugs in 10-fold serial dilutions in 96-well microculture plates. In determining the drug susceptibility of certain laboratory HIV-1 strains, MT-4 cells were employed as target cells as previously described with minor modifications. In brief, MT-4 cells (10^5/ml) were exposed to 100 TCID50 of drug-resistant HIV-1 strains in the presence or absence of various concentrations of drugs and were incubated at 37° C. On day 7 of culture, the supernatants were harvested and the amounts of p24 Gag protein were determined by using a fully automated chemiluminescent enzyme immunoassay system (Lumipulse F: Fujirebio Inc., Tokyo). […] All assays were performed in duplicate or triplicate. PHA-PBMs were derived from a single donor in each independent experiment. Thus, for obtaining the data, three different donors were recruited.

A further data set in a line: in vitro. Conditions: rat and monkey. How it is done:
The BBB Kit™ was kept at −80° C. until thawing on day 0 of the experiments. Nutritional medium was added to both brain and blood sides of the wells. This solution consists of DMEM F-12 medium with FCS 10% v/v, heparin 100 μg/ml, basic fibroblast growth factor (bFGF) 1.5 ng/ml, insulin 5 μg/ml, transferrin 5 μg/ml, sodium selenite 5 ng/ml, hydrocortisone 500 nM and gentamycin 50 μg/ml. Fresh medium was added 3 hours after thawing following the manufacturer's instructions, and 24 hours later. The plates were incubated at 37° C. until day 4 of the experiment when the condition of astrocytes was checked under a light microscope. Following this, the integrity of the collagen-coated membrane was verified by the measurement of the transendothelial electrical resistance (TEER) using an ohmmeter provided by the manufacturer. […] Detailed information regarding the components of the BBB Kit as well as its mechanisms can be seen by accessing the manufacturer's website http://www.pharmacocell.co.jp/en/bbb/index_e.html.
Standard curves were generated for each compound on a light spectrophotometer as previously described. 100 μM of each compound was added to the luminal (blood side) of the wells, incubated at 37° C. for 30 minutes and then, the amount of drug that crossed the in vitro BBB was collected and measured under a light spectrophotometer at 230 nanometer absorbances.
Papp was calculated using the following mathematical formula: […]
This model (BBB Kit™) is thought to represent an in vitro BBB model for drug transport assays, permitting an adequate cross-talk of the cell lines involved and provide a way to test an apparent passage of small molecules across the BBB as previously described by Nakagawa et al. (41). […] The concentrations of each compound that permeated into the abluminal interface (termed “brain side”) were determined using a spectrophotometer, 30 min after the addition of each drug to the wells.
The mathematical formula used for the calculation of Papp is described in Materials and Methods.

For a further data set, the system named is HIV-1LAI. The experiment in a line: Drug susceptibility MTT assay, MT-2 cells exposed to HIV-1LAI. In kind it is cell-based. Conditions: for Selectivity Index: ratio of CC50 to EC50 against HIV-1LAI. How it is done:
as §1
For orientation: Formazan colour is commonly taken as a measure of viable cells.

The nature of data set [1]: Cytotoxicity (CC50), MTT assay. Conditions: human. In kind it is cell-based. How it is done:
The susceptibility of HIV-1LAI to various drugs was determined as previously described with minor modifications. Briefly, MT-2 cells (10^4/ml) were exposed to 100 50% tissue culture infectious doses (TCID50) of HIV-1LAI in the presence or absence of various concentrations of drugs in 96-well microculture plates and were incubated at 37° C. for 7 days. After 100 μl of the medium was removed from each well, 3-(4,5-dimetylthiazol-2-yl)-2,5-diphenyltetrazolium bromide (MTT) solution (10 μl, 7.5 mg/ml in phosphate-buffered saline) was added to each well in the plate, followed by incubation at 37° C. for 2 h. […] All assays were performed in duplicate or triplicate. […] In determining the drug susceptibility of certain laboratory HIV-1 strains, MT-4 cells were employed as target cells as previously described with minor modifications. In brief, MT-4 cells (10^5/ml) were exposed to 100 TCID50 of drug-resistant HIV-1 strains in the presence or absence of various concentrations of drugs and were incubated at 37° C. On day 7 of culture, the supernatants were harvested and the amounts of p24 Gag protein were determined by using a fully automated chemiluminescent enzyme immunoassay system (Lumipulse F: Fujirebio Inc., Tokyo). […] All assays were performed in duplicate or triplicate. PHA-PBMs were derived from a single donor in each independent experiment. Thus, for obtaining the data, three different donors were recruited.

Setting [2] is: Human immunodeficiency virus 1, MT4, read-out: EC50 HIV-1NL4-3.
[3] abbreviates: Human immunodeficiency virus 1, MT2, read-out: EC50 HIV-1LAI, MT-2 cells, 100 TCID50, MTT assay.
The mark [4] stands for this setting: read-out: EC50 HIV-1LAI, MT-2 cells, 100 TCID50, MTT assay.
Setting [5] is: Human immunodeficiency virus 1, MT4, MT-4 cells, p24 Gag endpoint, read-out: EC50 HIV-1NL4-3.
Setting [6] is: Human immunodeficiency virus 1, MT2, MT-2 cells, 100 TCID50, MTT assay, read-out: EC50 HIV-1LAI.

As for `COC(=O)N[C@H](C(=O)N[C@@H](Cc1ccccc1)[C@@H](O)CN(Cc1ccc(-c2ccccn2)cc1)NC(=O)[C@@H](NC(=O)OC)C(C)(C)C)C(C)(C)C` [ATV, Atazanavir], the figures for the EC50 in the data set on HIV-1NL4-3 (setting [2]), with HIV-1LAI (setting [3]) and in the data set with HIV-1LAI (setting [4]) were 4.7 nM, 5 to 30 nM and 5 ± 1 nM, respectively. Besides, the Papp at 30 min, 100 μM in the data set “in vitro” (Papp) stood at 15.4 ×10⁻⁶ cm/s. In the data set on HIV-1LAI, the “Selectivity Index” value is 5,720. Further, the midpoint of cytotoxicity in data set [1], the CC50 at 7 days, lay at 28600 ± 900 nM.

As to `CC(C)CN(C[C@@H](O)[C@H](Cc1ccccc1)NC(=O)O[C@H]1CO[C@H]2OCC[C@H]21)S(=O)(=O)c1ccc(N)cc1` [DRV, darunavir], the EC50 with HIV-1NL4-3 (setting [2]) was 4 nM; with HIV-1LAI (setting [3]), 5 to 30 nM; in the data set with HIV-1LAI (setting [4]), 5 ± 1 nM. For the same compound, the Papp at 30 min, 100 μM in the data set “in vitro” was found to be 9.9 ×10⁻⁶ cm/s.

On to `COc1ccc(S(=O)(=O)N(CC(C)C)C[C@@H](O)[C@H](Cc2ccccc2)NC(=O)OC2CO[C@H]3OCC(F)(F)[C@@H]23)cc1` (some centres unmarked) [GRL-04810], for which the results for the EC50 in the data set with HIV-1NL4-3 (setting [5]) and in the data set with HIV-1LAI (setting [6]) were 0.5 nM and 0.8 nM, respectively. This compound returned a Papp at 30 min, 100 μM in “in vitro” (Papp) of 47.8 ×10⁻⁶ cm/s. In the data set with HIV-1LAI, the “Selectivity Index” value is reported as 21,875. The same compound came in with a CC50 at 7 days in data set [1] of 17500 nM.

Turning to `CC(C)CN(C[C@@H](O)[C@H](Cc1ccccc1)NC(=O)O[C@H]1CO[C@H]2OCC(F)(F)[C@H]21)S(=O)(=O)c1ccc(N)cc1` [GRL-05010], the EC50 is 3.7 nM with HIV-1NL4-3 (setting [5]) and 3 nM in the data set with HIV-1LAI (setting [6]). The same compound had a Papp at 30 min, 100 μM in the data set “in vitro” (Papp) of 61.8 ×10⁻⁶ cm/s. For the same compound, in the data set on HIV-1LAI, the “Selectivity Index” value is listed as 12,333.

On to `CC(C)(C)NC(=O)[C@@H]1C[C@@H]2CCCC[C@@H]2CN1C[C@@H](O)[C@H](Cc1ccccc1)NC(=O)[C@H](CC(N)=O)NC(=O)c1ccc2ccccc2n1` [SQV, Saquinavir], for which the EC50 in the data set with HIV-1NL4-3 (setting [2]) came to 37 nM. The Papp at 30 min, 100 μM in the data set “in vitro” (Papp) came to 4.9 ×10⁻⁶ cm/s. Moreover, in the data set with HIV-1LAI, the “Selectivity Index” value came out at 843. For the same compound, the CC50 at 7 days in data set [1] (50% cytotoxicity, read-out: CC50) was 17700 ± 3400 nM.
